# Source: patent EP4790048A1, “S1PR4 REGULATOR COMPOUND FOR AUTOIMMUNE DISEASE TREATMENT AND APPLICATION THEREOF” (Shengyuan Zetong (Shanghai) Pharmaceutical Co., Ltd, priority 2023, dated 2025)
# Entries after “also recorded” stand apart in the source; their conditions may differ.
# Key:
# Assay type in all cases: in vivo
# SD rats = assay: MIA-induced osteoarthritis (OA) model in rats
# Protocol: SD rats, approximately 200 g, male. Purchased from Shanghai Bikai Animal Co., Ltd. Adaptive feeding was conducted for about 7 days.
# 3.1.1 Anesthesia: the rat was placed into the anesthesia box, the O2 gas source and the gas delivery pump were turned on, and the gas adjustment knob was rotated to set the ratio of O2 to isoflurane at 8:2. The anesthesia depth knob was adjusted: first the indicator was turned to 3 to induce deep anesthesia in the rat; during the subsequent surgical procedure, the indicator was adjusted to 1.5 to maintain anesthesia. The three-way valve was opened to deliver gas into both the anesthesia box and the rat anesthesia mask.
# The syringe needle was inserted at a 45° angle to the plateau along the lateral side of the patellar ligament, as shown in the figure below. The Control group is injected with 50 µl of 0.9% sterile normal saline, while the other groups are injected with 50 µl of sterile normal saline containing 3 mg of MIA. After the procedure, the rat was removed, placed in a breeding cage, and irradiated with an incandescent lamp to help restore body temperature until the rat recovers from anesthesia.
# The Control group was administered 5% DMSO + 35% PEG400 + 60% normal saline. The compounds were dissolved in a system consisting of 5% dimethyl sulfoxide (DMSO), 35% polyethylene glycol 400 (PEG 400), and 60% normal saline. The drug solutions were prepared on the evening one day before administration.
# The rats were acclimated for 1 week and randomly divided into groups, with a total of 10 rats. The Control group was administered 5% DMSO + 35% PEG400 + 60% normal saline, while the other groups were given the test compounds dissolved in 5% DMSO + 35% PEG400 + 60% normal saline.
# 3.4.1. From Day 1 to Day 14 of the experiment, the rats were administered intragastrically once daily, with a gavage volume of 5 mL/kg. The Control group and Model group were given 5% DMSO + 35% PEG400 + 60% normal saline throughout the experiment, while the other groups were administered the corresponding drugs.
# On Day 7 and Day14 of the experiment, behavioral and joint pain tests were performed on the rats. To minimize confounding factors, the tests were conducted 1 hour after administration at a fixed time, preventing variations in the rats' condition at different time points from affecting the experimental results. The rats were allowed to acclimate to the environment for 20 minutes before the start of the experiment. • (1) Observation of walking distance and rearing times within five minutes: the dimensions of the resin box were measured and a paper sheet of the corresponding size was prepared. 1 cm × 1 cm grids were drawn on the paper sheet. The paper sheet was sealed with a transparent tape to prevent damage from rat excrement. Then the paper sheet with 1 cm × 1 cm grids was placed into the transparent resin box, ensuring a flat bottom. A camera device was used to record the walking process and trajectory of the rat within 5 minutes, and the walking distance and rearing times of the rat were counted. • (2) Joint Pain Assessment: After fixing the rat and allowing it to calm down, its knee joint was gently bent. […] The knee joint pain severity in rats is reflected by the scores of leg withdrawal and vocalization. The joint pain assessment was performed every 5 seconds for a total of 5 times.
# On Day 15 of the experiment, the rats were anesthetized, and blood was collected from their eyeballs. The serum was left to stand overnight at 4°C, centrifuged at 3600 rpm for 15 minutes at 4°C. The serum was aspirated and stored at -80°C. The rats were sacrificed by cervical dislocation. An incision was made along the knee joint on ice to remove fur, muscle, and other tissues. For each group, 5 rats were used; bilateral knee joints were dissected, and the color, roughness, and integrity of the femoral condyle surface were observed. The knee joint cartilage was then harvested and cryopreserved at -80°C. […]
# BALB/c mice [1] = assay: DSS-induced acute ulcerative colitis in mice (Example 6)
# Protocol: From Day 0 to Day 14 of the experiment, the mice were weighed daily and their blood and stool conditions were observed, scored and recorded according to the following table (Table 1). Random grouping was performed on Day 1, and modeling was conducted from Day 1 to Day 7. All groups except the Control group were given 3.5% DSS water daily. Re-grouping was performed on Day 8. The Control group and Model group received no medication and were given tap water; the other groups were administered intragastrically with 1 mg/kg, 3 mg/kg, 9 mg/kg, and SASP (Sulfasalazine or Salicylazosulfapyridine) 500 mg/kg, respectively. On Day 15, blood and colon samples were collected, colon length was measured, and a 1-2 cm segment of the colon was fixed with formaldehyde.
# (§1) • BALB/c mice, male, 20-22 g • Dextran sulfate sodium MW: 36,000-50,000 (DSS) • 30 1 mg/kg, 3 mg/kg, 9 mg/kg, SASP (500 mg/kg) indicators were observed.
# (§2) (1) Clinical Symptom Score: The mice were weighed daily and their blood and stool were observed during the experiment for DAI scoring, which was graded and recorded according to the following table (Table 1).
# (§3) (2) After the experiment, the colon was removed, its length measured and weight recorded. The colon-to-body weight index (colon weight/body weight × 100%) and colon swelling rate (colon weight/length × 100%) were calculated.
# (§4) Colonic tissue approximately 1 cm from the anal margin (0.5 cm) and ileocecal region tissue were collected for histopathological examination. After H&E staining, the tissues were scored under single-blind conditions to evaluate the level of distal colon inflammation and tissue damage; scoring was performed according to the Ameho criteria and calculated as follows: • Score 0: No abnormal findings in the texture. • Score 1: Mild inflammatory infiltration of the mucosa and/or submucosa (mixed with neutrophils), submucosal edema, punctate mucosal erosion, accompanied by capillary proliferation. The muscularis mucosae is intact. • Score 2: Changes of Score 1 account for more than 50%. • Score 3: Obvious inflammatory infiltration and edema (neutrophils are often predominant); ulcers usually penetrate the muscularis mucosae to reach the submucosa. There is little inflammatory cell infiltration in the muscularis propria and no muscle necrosis. • Score 4: Changes of Score 3 account for more than 50%. • Score 5: Large confluent ulcers with coagulative necrosis, massive neutrophil infiltration at the margins and few monocytes. Necrotic tissue penetrates the muscularis propria. • Score 6: Changes of Score 5 account for more than 50% of the specimen.
# The fence function of Occludin separates the apical and basolateral sides of the epithelial cell plasma membrane, restricting the free flow of lipids on the cell membrane, facilitating the formation of cell polarity, maintaining the impermeability and rigidity of the intestinal mucosa, and preventing the entry of pathogenic microorganisms. The barrier function of Occludin can regulate the transport of small molecules and maintain tissue homeostasis. […]
# BALB/c mice [2] = assay: DSS-induced chronic ulcerative colitis in mice (Example 6)
# Excerpt: BALB/c mice were acclimatized for 7 days before the experiment. From Day 7 to Day 50 of the experiment, the mice were weighed daily and their blood and stool conditions were observed, scored and recorded according to the following table (Table 1). After random grouping, all groups except the Control group were given free access to 2-3% DSS solution for modeling from Day 7 to Day 14, while the Control group received normal drinking water during the same period. One cycle lasted 14 days and was repeated 3 times. Re-grouping was performed at the start of the final cycle to initiate drug administration. The Control group and Model group received no drug but the same solvent. The other groups were intragastrically administered 1 mg/kg, 3 mg/kg, 9 mg/kg, and SASP 500 mg/kg respectively. On Day 45, blood and colon samples were collected, colon length was measured, and a 1-2 cm colon segment was fixed with formaldehyde.
# as §1, §2, §3, §4
# The fence function of Occludin separates the apical and basolateral sides of the epithelial cell plasma membrane, restricting the free flow of lipids on the cell membrane, facilitating the formation of cell polarity, maintaining the impermeability and rigidity of the intestinal mucosa, and preventing the entry of pathogenic microorganisms. The barrier function of Occludin can regulate the transport of small molecules and maintain tissue homeostasis. The expression and distribution of related proteins are detected by immunohistochemistry.
# During modeling, the body weight of mice in the control group increased steadily. In the model group, during the first modeling period, mice were given 3% DSS drinking water ad libitum for 7 days, followed by tap water ad libitum for 7 days. On Day 4 of modeling, the body weight of mice began to decrease generally, reaching the lowest point on Day 8, and then started to rise. During the second modeling period, mice were given 2% DSS drinking water ad libitum for 7 days, followed by tap water ad libitum for 7 days. […]
# [3] = DAY7, diclofenac sodium 2.5 mg/kg, vs Model group
SMILES,five-minute walking distance (SD rats; [3]),pain index (SD rats; [3]),"gross observation of knee joint femoral condyle cartilage (SD rats; Day 15 dissection, 5 rats per group)","serum IL-10 level (SD rats; Elisa, vs Model group)","OARSI score (severity of knee osteoarthritis) (SD rats; diclofenac sodium 2.5 mg/kg, vs Model group)",Safranin O-Fast Green staining of knee joints (SD rats; vs Model group),"body weight recovery (BALB/c mice [1]; 30 at 3 mg/kg, SASP at 500 mg/kg, vs model group)","daily DAI score (BALB/c mice [1]; 30 treatment groups, SASP 500 mg/kg, vs model group)",colon pathological changes (H&E staining) (BALB/c mice [1]; SASP 500 mg/kg),"survival rate (BALB/c mice [1]; SASP 500 mg/kg intragastric from Day 8, 8 mice, model group 75%)",Occludin expression in colonic mucosa (immunohistochemistry) (BALB/c mice [1]; vs Model group),"daily DAI score (BALB/c mice [2]; 30 treatment group, SASP 500 mg/kg, vs model group)","body weight recovery (BALB/c mice [2]; 30 treatment groups (1, 3, 9 mg/kg), SASP 500 mg/kg, vs model group)",colon pathological changes (H&E staining) (BALB/c mice [2]; SASP 500 mg/kg),Occludin expression in colonic mucosa (immunohistochemistry) (BALB/c mice [2]; vs Model group)
"O=C(O)Cc1ccccc1Nc1c(Cl)cccc1Cl [diclofenac sodium, reference compound]",increased significantly,significantly decreased,knee cartilage in most rats became smooth and glossy; also recorded: cartilage of most rat knee joints became smooth and bright,significantly increased,significantly milder than that in the Model group,enhanced Safranin O staining,,,,,,,,,
"O=C(O)c1cc(/N=N/c2ccc(S(=O)(=O)Nc3ccccn3)cc2)ccc1O [SASP, Sulfasalazine, reference compound]",,,,,,,faster body weight recovery with a greater rebound amplitude,decreased more rapidly,"still had inflammatory cell infiltration, but to a lesser extent than the Model group",87.5%,the expression of Occludin was increased,decreased more rapidly,recovered rapidly and increased substantially,"inflammatory cell infiltration, but to a lesser extent than the Model group",the expression of Occludin was increased
